Assay results taken from patent US12209079B2 (GENERAL INCORPORATED ASSOCIATION PHARMA VALLEY PROJECT …, priority 2017, dated 2025).
Structures can show the parent of a compound that is named as a salt.

Experiments:
[1] = target: rhIDO (recombinant human IDO) (Homo sapiens, UniProt P14902); assay: Enzyme assay using rhIDO (rate of kynurenine production); format: biochemical; conditions: 2 h; final concentration of the compound 10 μM; rate relative to reaction without compound; read-out: rhIDO-mediated kynurenine production
rhIDO (recombinant human IDO), sequence (P14902 whole entry): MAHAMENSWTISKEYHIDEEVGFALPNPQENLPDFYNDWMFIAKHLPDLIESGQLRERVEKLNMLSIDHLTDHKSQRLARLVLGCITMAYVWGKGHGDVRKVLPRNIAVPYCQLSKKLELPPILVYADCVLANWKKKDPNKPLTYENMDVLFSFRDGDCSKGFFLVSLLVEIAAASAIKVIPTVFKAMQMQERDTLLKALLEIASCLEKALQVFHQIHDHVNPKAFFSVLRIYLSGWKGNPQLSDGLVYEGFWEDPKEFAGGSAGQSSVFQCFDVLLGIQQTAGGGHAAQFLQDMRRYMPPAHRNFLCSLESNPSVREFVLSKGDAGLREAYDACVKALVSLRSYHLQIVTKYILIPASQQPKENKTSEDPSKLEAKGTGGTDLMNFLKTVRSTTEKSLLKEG
Protocol: Enzyme Assay Protocol Using rhIDO (Recombinant Human IDO)
4 μL of a compound solution was added to 176 μL of a rhIDO reaction solution (0.5 M potassium phosphate buffer (20 μL), 0.2 M ascorbic acid (20 μL), 0.5 mM methylene blue (4 μL), 10 mg/mL catalase (2 μL), H2O (128 μL), and rhIDO (2 μL)). The mixture was pipetted and preincubated at 37° C. for 10 minutes. Then, the whole amount was brought to 200 μL by the addition of 20 μL of a 2 mM aqueous tryptophan solution, and the mixture was pipetted again and reacted at 37° C. for 120 minutes. After the reaction, the enzymatic reaction was terminated by the addition of 40 μL of a 30% [v/v] aqueous trichloroacetic acid solution to the reaction solution. The mixture was well stirred by pipetting and heated at 50° C. for 15 minutes so that N-formylkynurenine was converted to kynurenine. The reaction solution thus heated was centrifuged (15,000 rpm, 5 min, 24° C.), and 150 μL of the supernatant was transferred to a transparent 96-well flat-bottomed plate, followed by the measurement of absorbance at 490 nm using SpectraMax MSSK (background measurement). After the measurement, a solution of 2% [w/v] p-dimethylbenzaldehyde in acetic acid was added at 150 μL/well and reacted for 5 minutes, followed by the measurement of absorbance at 490 nm again. The rate of kynurenine production was calculated according to the following expression. Rate of kynurenine production (%) for each compound in the case of using rhIDO={(Absorbance at 490 nm in the tryptophan-containing aqueous solution comprising rhIDO and the compound of the present invention−Absorbance of the background)/(Absorbance at 490 nm in the tryptophan-containing aqueous solution without the addition of the compound solution−Absorbance of the background)}×100 Enzyme Assay Protocol Using rhTDO (Recombinant Human TDO)

TDO in A172 cells = target: T1, TDO in A172 cells (Homo sapiens, UniProt P48775); assay: TDO cell-based assay, kynurenine production in A172 cells; conditions: A 172; final concentration of the compound 10 μM; rate relative to culture without compound
T1 construct: endogenous in cells; host or cells: A172 cells
T1 sequence (P48775 whole entry): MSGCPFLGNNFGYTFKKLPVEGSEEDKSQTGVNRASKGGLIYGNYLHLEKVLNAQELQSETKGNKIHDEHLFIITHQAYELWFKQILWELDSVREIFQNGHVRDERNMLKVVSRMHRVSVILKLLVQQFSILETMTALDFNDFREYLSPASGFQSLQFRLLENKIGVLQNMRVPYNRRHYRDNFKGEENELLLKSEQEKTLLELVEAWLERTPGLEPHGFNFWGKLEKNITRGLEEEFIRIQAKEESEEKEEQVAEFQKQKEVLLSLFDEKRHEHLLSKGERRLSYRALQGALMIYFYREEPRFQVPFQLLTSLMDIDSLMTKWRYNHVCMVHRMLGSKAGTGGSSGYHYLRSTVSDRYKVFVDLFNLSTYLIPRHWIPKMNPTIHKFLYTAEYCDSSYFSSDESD
Protocol: A172 cells (3.0×10^5 cells/mL) suspended in a culture medium for assay (PRMI-1640; Wako 186-02155, 5% FBS, 50 units/mL penicillin, and 50 μg/mL streptomycin) were inoculated at 100 μL/well to a transparent 96-well flat-bottomed plate and cultured at 37° C. for 24 hours in 5% CO2. The culture medium was removed from the cells thus cultured. A culture medium for assay was added at 80 μL/well, and further, a compound solution was added at 10 μL/well. The cells were preincubated for 1 hour. Then, the whole amount was brought to 100 μL/well by the addition of 10 μL/well of a 5 mM aqueous tryptophan solution (final concentration of L-tryptophan: 524 μM), and the cells were cultured for 24 hours. After the culture, absorbance was measured at 460 nm using SpectraMax MSSK (Molecular Devices, LLC) (background measurement). After the measurement, a kynurenine quantification reagent (prepared with 7% [v/v] aqueous trichloroacetic acid solution and a solution of 2% [w/v] p-dimethylbenzaldehyde in acetic acid at 2:5 [v/v]) was added at 200 μL/well and reacted for 5 minutes, followed by the measurement of absorbance at 460 nm again. The rate of kynurenine production was calculated according to the following expression. Rate of kynurenine production (%) for each compound in the case of using A172 cells={(Absorbance at 460 nm in the tryptophan-containing culture medium comprising the A172 cells and the solution of the compound of the present invention−Absorbance of the background)/(Absorbance at 460 nm in the tryptophan-containing culture medium without the addition of the compound solution−Absorbance of the background)}×100

IDO in A431 cells = target: T2, IDO in A431 cells (Homo sapiens, UniProt P14902); assay: IDO cell-based assay, kynurenine production in IFN-γ stimulated A431 cells; conditions: A-431, 24 h; final concentration of the compound 10 μM; rate relative to culture without compound
T2 construct: endogenous in cells; host or cells: A431 cells, IFN-γ stimulated
T2 sequence (P14902 whole entry): as the sequence (P14902 whole entry) above
Protocol: A431 cells (3.0×10^5 cells/mL) suspended in a culture medium for assay (D-MEM; Wako 040-30095, 5% FBS, 50 units/mL penicillin, 50 μg/mL streptomycin, and 2 mM L-glutamine) were inoculated at 100 μL/well to a transparent 96-well flat-bottomed plate and cultured at 37° C. for 24 hours in 5% CO2. The culture medium was removed from the cells thus cultured. A tryptophan-containing culture medium (culture medium for assay supplemented with 178 μM L-tryptophan) was added at 80 μL/well, and further, a compound solution was added at 10 μL/well. The cells were preincubated for 1 hour. Then, the whole amount was brought to 100 μL/well by the addition of 10 μL/well of IFN-γ diluted into 100 ng/mL with a tryptophan-containing culture medium, and the cells were cultured for 24 hours. After the culture, absorbance was measured at 460 nm using SpectraMax MSSK (Molecular Devices, LLC) (background measurement). After the measurement, a kynurenine quantification reagent (prepared with 7% [v/v] aqueous trichloroacetic acid solution and a solution of 2% [w/v] p-dimethylbenzaldehyde in acetic acid at 2:5 [v/v]) was added at 200 μL/well and reacted for 5 minutes, followed by the measurement of absorbance at 460 nm again. The rate of kynurenine production was calculated according to the following expression. Rate of kynurenine production (%) for each compound in the case of using A431 cells={(Absorbance at 460 nm in the tryptophan-containing culture medium comprising the A431 cells and the solution of the compound of the present invention−Absorbance of the background)/(Absorbance at 460 nm in the tryptophan-containing culture medium without the addition of the compound solution−Absorbance of the background)}×100 TDO Cell-Based Assay Protocol

[2] = target: rhTDO (recombinant human TDO) (Homo sapiens, UniProt P48775); assay: Enzyme assay using rhTDO (rate of kynurenine production); format: biochemical; conditions: 2 h; final concentration of the compound 10 μM; rate relative to reaction without compound; read-out: rhTDO-mediated kynurenine production
rhTDO (recombinant human TDO), sequence (P48775 whole entry): as the sequence (P48775 whole entry) above
Protocol: 4 μL of a compound solution was added to 176 μL of a rhTDO reaction solution (0.5 M potassium phosphate buffer (20 μL), 0.2 M ascorbic acid (20 μL), 0.5 mM methylene blue (4 μL), 10 mg/mL catalase (2 μL), H2O (128 μL), and rhTDO (2 μL)). The mixture was pipetted and preincubated at 37° C. for 10 minutes. Then, the whole amount was brought to 200 μL by the addition of 20 μL of a 20 mM aqueous tryptophan solution, and the mixture was pipetted again and reacted at 37° C. for 120 minutes. After the reaction, the enzymatic reaction was terminated by the addition of 40 μL of a 30% [v/v] aqueous trichloroacetic acid solution to the reaction solution. The mixture was well stirred by pipetting and heated at 50° C. for 15 minutes so that N-formylkynurenine was converted to kynurenine. The reaction solution thus heated was centrifuged (15,000 rpm, 5 min, 24° C.), and 150 μL of the supernatant was transferred to a transparent 96-well flat-bottomed plate, followed by the measurement of absorbance at 490 nm using SpectraMax M5 SK (background measurement). After the measurement, a solution of 2% [w/v] p-dimethylbenzaldehyde in acetic acid was added at 150 μL/well and reacted for 5 minutes, followed by the measurement of absorbance at 490 nm again. The rate of kynurenine production was calculated according to the following expression. Rate of kynurenine production (%) for each compound in the case of using rhTDO={(Absorbance at 490 nm in the tryptophan-containing aqueous solution comprising rhTDO and the compound of the present invention−Absorbance of the background)/(Absorbance at 490 nm in the tryptophan-containing aqueous solution without the addition of the compound solution−Absorbance of the background)}×100 IDO Cell-Based Assay Protocol

Row | Compound | remaining activity at 10 µM [1] [%] | remaining activity at 10 µM (TDO in A172 cells) [%] | remaining activity at 10 µM (IDO in A431 cells) [%] | remaining activity at 10 µM [2] [%]
1 | Clc1ccc(CN2CN=C(SCc3ccccc3CSC3=NCN(Cc4ccc(Cl)cc4)CN3)NC2)cc1 [Compound 41, 1,2-Bis(((5-(4-chlorobenzyl)-1,4,5,6-tetrahydro-1,3,5-triazin-2-yl)thio)methyl)benzene] | 41 | 4 | 6 | 45
2 | N=C(N)SCc1ccccc1CC(=O)NCCc1ccccc1 [Compound 64, 2-(2-Oxo-2-(phenethylamino)ethyl)benzyl carbamimidothioate hydrobromide] | 81 | 76 | 102 | 42
3 | N/C(=N\c1ccc(F)cc1)SCc1cc(Cl)c(Cl)cc1CS/C(N)=N/c1ccc(F)cc1 [Compound 137, (4,5-Dichloro-1,2-phenylene)bis(methylene) (E,E)-bis(N′-(4-fluorophenyl)carbamimidothioate) dihydrobromide] | -3 | 2 | 8 | 9
4 | N#Cc1ccc(CNC(=O)c2ccccc2CSC(=N)N)cc1 [Compound 96, 2-((4-Cyanobenzyl)carbamoyl)benzyl carbamimidothioate hydrobromide] | 71 | 38 | 93 | 26
5 | Cc1ccc(CSC(=N)N)c(CSC(=N)N)c1 [Compound 12, (4-methyl-1,2-phenylene)bis(methylene) dicarbamimidothioate dihydrobromide] | 20 | 0 | 13 | 10
6 | FC(F)(F)c1cccc(CCN2CN=C(SCc3ccc(Br)cc3CSC3=NCN(CCc4cccc(C(F)(F)F)c4)CN3)NC2)c1 [Compound 149, 6,6′-(((4-Bromo-1,2-phenylene)bis(methylene))bis(sulfanediyl))bis(3-(3-(trifluoromethyl)phenethyl)-1,2,3,4-tetrahydro-1,3,5-triazine)] | 8 | 17 | 7 | 11

Second part, the compound after the results:

Row | remaining activity at 10 µM [1] [%] | remaining activity at 10 µM (TDO in A172 cells) [%] | remaining activity at 10 µM (IDO in A431 cells) [%] | remaining activity at 10 µM [2] [%] | Compound
7 | 64 | 102 | 68 | 56 | CC(C)(C)c1ccc(CSC(=N)N)c(CSC(=N)N)c1 [Compound 4, (4-(tert-butyl)-1,2-phenylene)bis(methylene) dicarbamimidothioate dihydrobromide]
8 | 40 | 3 | 7 | 53 | Clc1ccccc1CCN1CN=C(SCc2ccccc2CSC2=NCN(CCc3ccccc3Cl)CN2)NC1 [Compound 28, 1,2-bis(((5-(2-chlorophenethyl)-1,4,5,6-tetrahydro-1,3,5-triazin-2-yl)thio)methyl)benzene]
9 | 29 | 11 | 14 | 7 | Fc1ccc(CSC2=NCN(CC3CCCCC3)CN2)c(CSC2=NCN(CC3CCCCC3)CN2)c1 [Compound 121, 6,6′-(((4-Fluoro-1,2-phenylene)bis(methylene))bis(sulfanediyl))bis(3-(cyclohexylmethyl)-1,2,3,4-tetrahydro-1,3,5-triazine)]
10 | 71 | 16 | 56 | 50 | N#Cc1ccc(CNC(=O)c2ccc(Br)cc2CS/C(N)=N/c2ccc(F)c(Cl)c2)cc1 [Compound 85, 5-Bromo-2-((4-cyanobenzyl)carbamoyl)benzyl (E)-N′-(3-chloro-4-fluorophenyl)carbamimidothioate hydrobromide]
11 | -2 | 5 | 10 | 5 | N/C(=N\c1ccc(F)c(Cl)c1)SCc1cc(Cl)c(Cl)cc1CS/C(N)=N/c1ccc(F)c(Cl)c1 [Compound 134, (4,5-Dichloro-1,2-phenylene)bis(methylene) (E,E)-bis(N′-(3-chloro-4-fluorophenyl)carbamimidothioate) dihydrobromide]
12 | -3 | 7 | 2 | 8 | N/C(=N\c1ccc(F)c(Cl)c1)SCc1ccccc1CS/C(N)=N/c1ccc(F)c(Cl)c1 [Compound 122, 1,2-Phenylenebis(methylene) (E,E)-bis(N-(3-chloro-4-fluorophenyl)carbamimidothioate) dihydrobromide]
